Ends that are not written are not given here.
Tests used:
SARS-CoV-2 pseudovirus = type: cell-based
S1 protein = biological target: T1, S1 protein (Severe acute respiratory syndrome coronavirus 2, UniProt P0DTC2); test: biochemical; type: binding, SARS-CoV-2
T1 construct: Purified S1 protein was first immobilized on a series S sensor chip protein A; purchased OkayBio

Sequence: YYCQQYDNLSGT [CDR3 peptide 44]
- neutralizing ability by pseudovirus neutralizing assay (SARS-CoV-2 pseudovirus): showed neutralizing ability
- neutralizing ability by authentic virus neutralization assays (SARS-CoV-2): showed neutralizing ability
- neutralizing activity against SARS-CoV-2 by IFA assay (SARS-CoV-2): modestly lower neutralizing activity

Sequence: AKDFRQYCSSTTCYDLDY [CDR3 peptide 21]
- neutralizing ability by pseudovirus neutralizing assay (SARS-CoV-2 pseudovirus): showed neutralizing ability
- neutralizing ability by authentic virus neutralization assays (SARS-CoV-2): showed neutralizing ability
- neutralizing activity against SARS-CoV-2 by IFA assay (SARS-CoV-2): obvious neutralizing activity

Sequence: ARERADDYSNYCWFDP [CDR3 peptide 12]
- neutralizing ability by pseudovirus neutralizing assay (SARS-CoV-2 pseudovirus): showed neutralizing ability
- neutralizing ability by authentic virus neutralization assays (SARS-CoV-2): showed neutralizing ability
- neutralizing activity against SARS-CoV-2 by IFA assay (SARS-CoV-2): obvious neutralizing activity

Sequence: EAWDVDNRVFGGGTR [CDR3 peptide 51]
- neutralizing activity against SARS-CoV-2 by IFA assay (SARS-CoV-2): obvious neutralizing activity
- IC50 (SARS-CoV-2; 24 h): 1250 to 2500 µg/mL

Sequence: ARDIVVPAAMGEIGGWFDP [CDR3 peptide 16]
- Kd (S1 protein): 24.1 µM

Sequence: VRYSPEPAVLITEGYFD [CDR3 peptide 4]
- neutralizing ability by pseudovirus neutralizing assay (SARS-CoV-2 pseudovirus): showed neutralizing ability
- neutralizing ability by authentic virus neutralization assays (SARS-CoV-2): showed neutralizing ability
- neutralizing activity against SARS-CoV-2 by IFA assay (SARS-CoV-2): modestly lower neutralizing activity

Sequence: ARDVSSLYGGNSDDY [CDR3 peptide 24]
- neutralizing activity against SARS-CoV-2 by IFA assay (SARS-CoV-2): no neutralizing activity

Sequence: VRERISYFDHWGQG [CDR3 peptide 53]
- neutralizing activity against SARS-CoV-2 by IFA assay (SARS-CoV-2): obvious neutralizing activity

Sequence: ARESLYDFDGSGYVDALDV [CDR3 peptide 11]
- Kd (S1 protein): 0.262 µM

Sequence: YYCQSYDSSNVV [CDR3 peptide 47]
- neutralizing ability by pseudovirus neutralizing assay (SARS-CoV-2 pseudovirus): showed neutralizing ability
- neutralizing ability by authentic virus neutralization assays (SARS-CoV-2): showed neutralizing ability
- neutralizing activity against SARS-CoV-2 by IFA assay (SARS-CoV-2): modestly lower neutralizing activity

Sequence: TTDRYQLLWAG [CDR3 peptide 22]
- neutralizing ability by pseudovirus neutralizing assay (SARS-CoV-2 pseudovirus): showed neutralizing ability
- neutralizing ability by authentic virus neutralization assays (SARS-CoV-2): showed neutralizing ability
- neutralizing activity against SARS-CoV-2 by IFA assay (SARS-CoV-2): obvious neutralizing activity
